Reference: patent publication US9334272B2, “Derivatives of purinic and pyrimidinic antiviral agents and use thereof as potent anticancer agents” (Ramot at Tel-Aviv University Ltd., priority 2007, dated 2016)

Tested on: U-251 cells
Test: Nitric oxide production assay, U-251 cells
Assay type: cell-based, human
Conditions: 50 μM (mixture 50 μM + 50 μM), 1 hour treatment
Protocol: U251 cells (5×10^4) were seeded in 24 well plates, and after 24 hours washed and resuspended in PBS. […] Fluorescence was measured with excitation/emission filters of 390/440 nm in a FluoStar fluorimeter. The concentration of nitrate was determined by subtracting the nitrite concentration from the total concentration of nitrite+nitrate.

For CCCC(CCC)C(=O)Nc1nc2c(ncn2COCCOC(=O)C(CCC)CCC)c(=O)[nH]1 [Compound 6, N-valproyl-9-(2-valproyloxy)ethoxymethylguanine], the NO production was “increased NO production in U-251 cells considerably”.
